5 compounds from US20040077602A1, “Mixture composition for controlling ectoparasites” (Meiji Seika Kaisha, Ltd., priority 2002, published 2004) can be followed below.

The experiment deals with Dermanyssus gallinae. The experiment in a line: Miticidal effect against Dermanyssus gallinae (Pasteur pipette residual contact test, Test Example 1). It counts as in vivo. The settings on record: single agent, sucking adult mites, 25° C. From the text: Miticidal Effect Against Dermanyssus gallinae
The tip of a Pasteur pipette was sealed with Parafilm, and a sample compound diluted with acetone to a designated concentration was poured into the pipette from its top. The Parafilm in the tip of the pipette was removed one min after the pouring to discharge the test solution, and the pipette was air dried. Thereafter, an absorbent cotton was inserted into the upper end of the pipette, and sucking adult mites of Dermanyssus gallinae were released in the pipette. The tip of the pipette was sealed with Hematoseal, and the pipette was then placed in a desiccator containing a saturated ammonium sulfate solution in its bottom and was stored under fully darkened conditions at 25° C. The mites were observed under a stereomicroscope 4 hr after and 24 hr after the treatment to judge whether the mites were dead or survived, followed by determination of the miticidal rate (%).

With `CCc1nc2ccc(F)c(F)c2c(OC(=O)C2CC2)c1C` [Compound 2, 2-ethyl-3-methyl-4-cyclopropanecarbonyloxy-5,6-difluoroquinoline], for the setting “5 ppm”, the “Miticidal rate 4 hr after treatment” value was determined as 40% and the “Miticidal rate 24 hr after treatment” value amounted to 50%.
On to `COC(=O)Oc1c(C)c(C)nc2ccc(F)c(F)c12` [Compound 25, 2,3-dimethyl-4-methoxycarbonyloxy-5,6-difluoroquinoline], for which, for the setting “5 ppm”, the “Miticidal rate 4 hr after treatment” value came to 70% and the “Miticidal rate 24 hr after treatment” value stood at 80%.
`CC1(C)C(C=C(Cl)Cl)C1C(=O)OC(C#N)c1ccc(F)c(Oc2ccccc2)c1` (stereo not shown) [Cyfluthrin, cyfluthrin]: under “50 ppm”, the “Miticidal rate 4 hr after treatment” value was determined as 0% and the “Miticidal rate 24 hr after treatment” value came out at 0%.
Regarding `CC1(C)C(C=C(Cl)c2ccc(Cl)cc2)C1C(=O)OC(C#N)c1ccc(F)c(Oc2ccccc2)c1` (stereo not shown) [Flumethrin, flumethrin], for the setting “50 ppm”, the “Miticidal rate 4 hr after treatment” value is given as 5% and the “Miticidal rate 24 hr after treatment” value is reported as 10%.
Turning to `CC1(C)C(C=C(Cl)Cl)C1C(=O)OCc1cccc(Oc2ccccc2)c1` (stereo not shown) [Permethrin, permethrin], for the setting “50 ppm”, the “Miticidal rate 4 hr after treatment” value was determined as 0% and the “Miticidal rate 24 hr after treatment” value turned out to be 0%.
